Measurements taken from patent publication US8790735B2, “Method of preferentially reducing absorption of saturated fat and compositions” (General Mills, Inc., priority 2005, dated 2014).
Entries after “also recorded” stand apart in the source; their conditions may differ.

System: Male Wistar rats
Assay: Excretion of radiolabeled triolein and tripalmitin in rats fed test diets
Format: in vivo, rat
Procedure: As noted above, saturated fat is deemed to be complexed if at least about 5% of the available saturated fat is complexed. The amount of fat that is complexed is determined by conducting excretion studies as detailed below, and determining the amount of fat that is excreted as compared to a control sample not containing complexed fat. While some of the complexed fat may dissociate in the body, the excretion study will identify the minimum percentage of fat that is complexed.
• 13. Centrifuge the isolated aqueous layer from 11 above at 5000×g for 10 min. • 14. Filter 1 ml of the centrifuged sample supernatant with 0.45 micrometer nylon filter. Inject on to HPLC molecular sizing column. Quantify total cyclodextrin relative to a response factor developed from a standard curve of pure cyclodextrin. • 15. For Pure Fat Samples Only: Weigh remainder of supernatant sample into tared flask. Evaporate moisture to dryness. Record weight of solids. (note: net weight for non-salt containing fat samples will represent free alpha-cyclodextrin) • 16. Subtract free alpha-cyclodextrin amounts determined in 8 above from values determined in steps 15 and 16. Value equals total bound alpha-cyclodextrin. Experimental Design Male Wistar rats, 125-150 g in initial weight, 10 per group, were fed one of four diets. The diets were modifications of the AIN-93G diet [Reeves, PG (1997) Components of the AIN-93 Diets as Improvements in the AIN-76A Diet, J. Nutr. 127:838 S-841S], and thus was a purified diet. All diets were modified to contain 15% fat by weight, wherein the fat comprised 50% ^14C-triolein, an unsaturated fat that is a triglyceride of oleic acid, and 50% ^3H-tripalmitin, a saturated fat that is a triglyceride of palmitic acid. The diets were as follows:
Note that Diet 3 comprised the AIN-93G diet containing 5% α-cyclodextrin (replacing cellulose), which was added in the free unhydrated form as provided by the manufacturer (unhydrated ACD contains approximately 10% w/w moisture). Diet 4 comprised the AIN-93G diet containing 5% hydrated α-cyclodextrin (replacing cellulose), mixed with the radiolabeled fat prior to incorporation into the diet.
The animals were fed their respective diets for 7 days. A two day fecal fat collection was made during days 6 and 7 to allow for a conventional fecal fat determination (i.e. fat extraction with acidified chloroform:methanol). The animals were then fasted overnight, and presented with a 4 g meal of their respective diets containing ^14C-triolein and ^3H-tripalmitin incorporated into the diet. A fecal collection was begun four hours later, and continued until the animals were taken. Twelve hours later, the rats were killed and the small and large intestinal tracts removed. Contents of the stomach, small intestine, cecum, and colon as well as the small intestinal mucosa were collected and freeze-dried. […] After solubilization, the solution was neutralized with glacial acetic acid (to eliminate chemiluminescence), scintillation cocktail added, and the vials counted in a liquid scintillation counter using a dual label counting algorithm.
In this study, excretion is defined as all radiolabel present in the cecal contents, colon contents, and feces. Excretion is calculated in this manner as there is no absorption of triacylglycerols in the large intestine; thus, any radiolabel present in the cecal or colon contents cannot be absorbed and is thus destined to be excreted. […]

[1] = 5% in AIN-93G diet with 15% fat, fed 7 days, then 4 g radiolabeled meal, FIG. 1

**Q.** With `OC[C@H]1O[C@@H]2O[C@H]3[C@H](O)[C@@H](O)[C@@H](O[C@H]4[C@H](O)[C@@H](O)[C@@H](O[C@H]5[C@H](O)[C@@H](O)[C@@H](O[C@H]6[C@H](O)[C@@H](O)[C@@H](O[C@H]7[C@H](O)[C@@H](O)[C@@H](O[C@H]1[C@H](O)[C@H]2O)O[C@@H]7CO)O[C@@H]6CO)O[C@@H]5CO)O[C@@H]4CO)O[C@@H]3CO` [α-cyclodextrin, alpha-cyclodextrin] as the molecule, how does the “triolein excretion (radiolabel in cecal contents, colon contents and feces)” value [1] read?
**A.** Its value is “no or only a modest effect”.

**Q.** And the “tripalmitin excretion (radiolabel in cecal contents, colon contents and feces)” value [1]?
**A.** Its value is “dramatically increased; also recorded: dramatic effect”.

**Q.** What about the “triolein excretion (radiolabel in cecal contents, colon contents and feces)” value (5% in AIN-93G diet with 15% fat, fed 7 days, then 4 g radiolabeled meal, FIG. 1, listed as α-Cyclodextrin) of the same molecule?
**A.** The value was “no affect”.

**Q.** And the “ratio of excretion of tripalmitin to triolein” value (calculated from FIG. 1 values (radiolabel excreted as proportion of radiolabel consumed), FIG. 2)?
**A.** Its value is “favored tripalmitin excretion”.

**Q.** And the fat excretion (dietary, 5% in diet, rats)?
**A.** The fat excretion was “does indeed increase fat excretion”.
